# Results reported in paper PMC4208661, “SGLT2 inhibitors act from the extracellular surface of the cell membrane” (Physiological Reports, 2014).
# Where two headings read alike, the source gives them in different places.
# Tests used:
# hSGLT1 [1] = biological target: T1, hSGLT1 (Homo sapiens, UniProt P13866); test: Whole-cell patch clamp, glucose-induced current, extracellular inhibitor, HEK-293T cells expressing hSGLT1
# T1 sequence (P13866 1-664): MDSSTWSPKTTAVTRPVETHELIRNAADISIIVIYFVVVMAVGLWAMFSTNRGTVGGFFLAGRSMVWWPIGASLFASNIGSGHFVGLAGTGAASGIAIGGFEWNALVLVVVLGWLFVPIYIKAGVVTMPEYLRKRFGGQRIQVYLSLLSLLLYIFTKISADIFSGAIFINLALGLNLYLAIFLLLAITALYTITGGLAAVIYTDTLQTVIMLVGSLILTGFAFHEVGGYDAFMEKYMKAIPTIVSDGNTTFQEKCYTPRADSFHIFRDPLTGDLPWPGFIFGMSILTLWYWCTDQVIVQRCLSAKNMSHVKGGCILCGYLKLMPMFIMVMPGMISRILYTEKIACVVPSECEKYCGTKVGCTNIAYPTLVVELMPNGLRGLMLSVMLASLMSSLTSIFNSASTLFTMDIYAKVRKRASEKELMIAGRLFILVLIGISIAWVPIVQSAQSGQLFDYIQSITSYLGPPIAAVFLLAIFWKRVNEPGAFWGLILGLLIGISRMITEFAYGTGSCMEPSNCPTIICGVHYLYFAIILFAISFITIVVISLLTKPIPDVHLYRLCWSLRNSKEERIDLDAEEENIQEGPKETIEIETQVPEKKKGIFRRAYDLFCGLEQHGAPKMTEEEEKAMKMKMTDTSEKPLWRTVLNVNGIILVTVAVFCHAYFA
# Description: In brief, 2 days after transfection cells were plated on 12‐mm poly‐L‐lysine‐coated glass coverslips and selected on the basis of fluorescence intensity using a Nikon diaphot epifluorescence microscope (Nikon, Tokyo, Japan). During the experiment cells were kept at the holding potential Vh = −60 mV. […] Currents were filtered at 2 kHz and digitized at 1 kHz.
# Glucose currents (IGlu) were obtained by subtracting the baseline current recorded in Na^+ buffer to the total current measured in Na^+ buffer + glucose: [drawing 1]
# The inhibition constant (IC50) was determined by measuring the sugar‐dependent steady‐state current or radiotracer uptake as a function of external inhibitor concentration.
# The D‐glucose‐coupled current recovery follows an exponential time course with time constant 1/koff and half‐time for recovery (t1/2,off) related to the off rate: [drawing 3]
# The ON rate (kon) is calculated from the empirically measured Ki values and koff values: [drawing 4]
# To calculate the dissociation constant (koff) we measured the recovery time of SGLT glucose‐induced current when the inhibitor is rapidly removed from the extracellular solution.
# hSGLT2 [2] = biological target: T2, hSGLT2 (Homo sapiens, UniProt P31639); test: Whole-cell patch clamp, glucose-induced current, extracellular inhibitor, HEK-293T cells expressing hSGLT2; format: cell-based; parameters: transfected with 1 μg of the vector containing the hSGLT2 or hSGLT1 coding region; expressed in transfected cells; host or cells: HEK-293T
# T2 sequence (P31639 1-672): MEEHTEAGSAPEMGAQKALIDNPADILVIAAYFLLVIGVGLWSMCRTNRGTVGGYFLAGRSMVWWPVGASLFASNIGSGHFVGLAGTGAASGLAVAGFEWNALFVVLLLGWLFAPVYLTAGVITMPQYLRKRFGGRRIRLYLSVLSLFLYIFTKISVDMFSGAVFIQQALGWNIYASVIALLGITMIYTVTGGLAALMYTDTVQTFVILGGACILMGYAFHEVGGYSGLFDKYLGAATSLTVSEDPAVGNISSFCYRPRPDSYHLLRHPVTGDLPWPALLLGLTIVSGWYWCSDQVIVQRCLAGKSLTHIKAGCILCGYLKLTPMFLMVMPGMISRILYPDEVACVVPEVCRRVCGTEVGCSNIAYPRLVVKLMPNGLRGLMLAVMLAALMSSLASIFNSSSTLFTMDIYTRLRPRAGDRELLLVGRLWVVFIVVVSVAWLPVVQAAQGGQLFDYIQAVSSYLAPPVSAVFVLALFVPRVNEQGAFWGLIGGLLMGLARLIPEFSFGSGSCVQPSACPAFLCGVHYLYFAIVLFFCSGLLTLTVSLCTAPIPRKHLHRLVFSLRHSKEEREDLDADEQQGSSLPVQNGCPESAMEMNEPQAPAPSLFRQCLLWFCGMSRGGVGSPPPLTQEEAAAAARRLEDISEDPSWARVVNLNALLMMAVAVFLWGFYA
# hSGLT2 [3] = biological target: T2, hSGLT2; parameters: method as in Koga et al. [2013]; conditions: ref Koga et al. [2013], cited from earlier work
# hSGLT2 [4] = biological target: T2, hSGLT2; test: [14C]-αMDG uptake in HEK-293T cells expressing hSGLT2; format: cell-based; parameters: transfected with 1 μg of the vector containing the hSGLT2 or hSGLT1 coding region; expressed in transfected cells; host or cells: HEK-293T
# Description: Uptake was normalized to total cellular protein.
# We decided to use two different approaches due to the fact that hSGLT2 has low expression, yielding small glucose‐induced currents. For radiotracer uptake experiments, tracer entry in the cell is measured over the period of 30 min leading to a higher sensitivity of the method.
# [5] = parameters: method as in Koga et al. [2013]; conditions: ref Koga et al. [2013]; cited from earlier work
# hSGLT1 [6] = biological target: T1, hSGLT1; test: Whole-cell patch clamp, inward glucose current with inhibitor in the intracellular (pipette) solution, hSGLT1; format: cell-based; parameters: transfected with 1 μg of the vector containing the hSGLT2 or hSGLT1 coding region; expressed in transfected cells; host or cells: HEK-293T
# Excerpt: (§1) The intracellular NaCl concentration was maintained at either 5 or 150 mmol/L using CsCl to replace NaCl (Fig. 5A and B).
# hSGLT1 [7] = biological target: T1, hSGLT1; conditions: 300 nmol/L TA-3404, 50 μmol/L α-MDG, HEK-293T, 37°C
# Description: In brief, cells were incubated for 30 min in 50 μmol/L [^14C]‐α‐Methyl‐D‐glucopyranoside (GE HealthCare Life Sciences, Piscataway, NJ), a specific substrate for SGLTs, and washed in cold Choline buffer three times. The cells were solubilized and a sample was assayed using scintillation counting. Uptake was normalized to total cellular protein. For each tested condition, the sample size was n = 3–4 wells and each experiment was repeated at least twice.
# hSGLT2 [8] = biological target: T2, hSGLT2; test: Whole-cell patch clamp, inward glucose current with inhibitor in the intracellular (pipette) solution, hSGLT2; format: cell-based; parameters: transfected with 1 μg of the vector containing the hSGLT2 or hSGLT1 coding region; expressed in transfected cells; host or cells: HEK-293T
# Excerpt: as §1
# hSGLT2 [9] = biological target: T2, hSGLT2; parameters: transfected with 1 μg of the vector containing the hSGLT2 or hSGLT1 coding region; expressed in transfected cells; host or cells: HEK-293T; conditions: ref Hummel et al. [2011], cited from earlier work
# [10] = system: renal glucose reabsorption; conditions: cited from earlier work
# [11] = after 24 h, single clinical oral dose; ref Hummel et al. [2012]; cited from earlier work
# hSGLT2 over hSGLT1 = system: hSGLT2 over hSGLT1; parameters: method as in Nomura et al. [2010]; conditions: from IC50; ref Nomura et al. [2010]; cited from earlier work
# [12] = physiological conditions, HEK293T cells
# [13] = ref Chasis et al. [1933], Silverman [1974]
structure (smiles),measurement,setting,value
OC[C@H]1O[C@@H](c2ccc(Cl)c(Cc3ccc(-c4ccc(F)nc4)s3)c2)[C@H](O)[C@@H](O)[C@@H]1O [TA‐3404],IC50,hSGLT1 [1],300 ± 61 nM
same,Ki,hSGLT1 [1],150 nM
same,"half-time of recovery of hSGLT1 current (t1/2,off)","hSGLT1 [1]; after removal of inhibitor, n = 5",5.4 ± 0.4 s
same,"koff, hSGLT1",hSGLT1 [1]; from half-time of current recovery,0.2 per sec
same,"inhibition of glucose-induced inward current, hSGLT2","hSGLT2 [2]; 300 nmol/L extracellular TA-3404, 100 mmol/L glucose, -60 mV, 37°C",completely inhibited
same,"half-time of recovery of hSGLT2 current (t1/2,off)","hSGLT2 [2]; after removal of inhibitor, reversible ~50% component, n = 3",17 ± 0.5 s
same,"kon, hSGLT2",hSGLT2 [2]; calculated from Ki and koff,1.4 × 10^6 mol/L per sec
same,recovery of hSGLT2 current after removing the inhibitor,"hSGLT2 [2]; washout, no further recovery over 5 min",~ 50%
same,IC50,"hSGLT2 [3]; CHOK1 cells overexpressing hSGLT2, read-out: IC50, Na+-dependent 14C-α-MDG uptake, SGLT2",2 nM
same,selectivity for SGLT2 vs. SGLT1,"hSGLT2 [3]; CHOK1 cells, ratio of IC50",~ 350 fold
same,inhibition of hSGLT2 sugar uptake,"hSGLT2 [4]; 2 nmol/L TA-3404, 50 μmol/L α-MDG, HEK-293T, 37°C",50%
same,IC50,"hSGLT2 [4]; 50 μmol/L [14C]-αMDG, 1-500 nmol/L extracellular TA-3404, HEK-293T, read-out: IC50, [14C]-αMDG uptake, hSGLT2",3.9 ± 2.2 nM
same,affinity of hSGLT2 higher than for hSGLT1,hSGLT2 [4]; HEK-293T,about 75 fold
same,IC50,"hSGLT2 [4]; as stated in the abstract, read-out: IC50, extracellular inhibition of glucose inward SGLT2 transport",2 nM
same,Ki,"hSGLT2 [4]; from IC50 (IC50 is twice the Ki), extracellular",~2 nM
same,pharmacokinetic profiles,[5],favorable pharmacokinetic profiles
same,urine glucose excretion,[5],increased urine glucose excretion
same,effect on inward hSGLT1 Na+/glucose current,"hSGLT1 [6]; 200 nmol/L TA-3404 intracellular, 5 mmol/L NaCl in the pipette, 10 mmol/L glucose",no effect
same,effect on hSGLT1 glucose-induced current,"hSGLT1 [6]; 200 nmol/L TA-3404 intracellular, 150 mmol/L Na+ in the pipette",did not detect any significant effect
same,"inhibition of Na+/glucose currents generated by hSGLT1, inhibitor in the cytoplasm",hSGLT1 [6]; [12],does not inhibit
same,inhibition of hSGLT1 uptake,hSGLT1 [7],10%
same,inhibition of inward hSGLT2 Na+/glucose current,"hSGLT2 [8]; 200 nmol/L TA-3404 intracellular, 5 mmol/L intracellular Na+, 100 mmol/L glucose, -60 mV",did not inhibit
same,inhibition of inward hSGLT2 glucose current,"hSGLT2 [8]; 200 nmol/L TA-3404 intracellular, 150 mmol/L intracellular Na+",no significant inhibition
same,intracellular affinity of hSGLT2 lower than the extracellular affinity,hSGLT2 [8]; intracellular versus extracellular,at least 100
same,inhibition of SGLT2 from the intracellular compartment,hSGLT2 [8]; low (5 mmol/L) and high (150 mmol/L) intracellular NaCl,ineffective
same,"inhibition of Na+/glucose currents generated by hSGLT2, inhibitor in the cytoplasm",hSGLT2 [8]; [12],does not inhibit
O=C(CCc1ccc(O)cc1)c1c(O)cc(O)cc1O[C@@H]1O[C@H](CO)[C@@H](O)[C@H](O)[C@H]1O [phlorizin],effect on sugar uptake by hSGLT2,"hSGLT2 [4]; 100 μmol/L phlorizin, 50 μmol/L α-MDG, HEK-293T",to the level observed in untransfected cells
same,"Off rate, hSGLT2",hSGLT2 [9]; phlorizin,0.3 per sec
same,"half-time of recovery of hSGLT2 current (t1/2,off)",hSGLT2 [9],24 s
same,glomerular filtration,[10]; [13],freely filtered
same,glucose reabsorption,[10]; [13],completely blocks glucose reabsorption
same,route of excretion,[10]; ref Silverman [1974],mainly excreted into the urine
CCOc1ccc(Cc2cc([C@@H]3O[C@H](CO)[C@@H](O)[C@H](O)[C@H]3O)ccc2Cl)cc1 [dapagliflozin],free plasma concentration,[11],25 nM
same,Off rate of binding to hSGLT2,hSGLT2 [9],very slow Off rate
"Cc1ccc([C@@H]2O[C@H](CO)[C@@H](O)[C@H](O)[C@H]2O)cc1Cc1ccc(-c2ccc(F)cc2)s1 [Canagliflozin, canagliflozin]",selectivity for hSGLT2 over hSGLT1,hSGLT2 over hSGLT1,414 fold
